Reference: patent US4151282A, “Compositions and methods for treating diabetic complications” (A. H. Robins Company, Inc., priority 1977, dated 1979)

Assays:
[1] = biological target: T1, Aldose reductase isolated from bovine lens (Bos taurus, UniProt P16116); experiment: Inhibition of aldose reductase isolated from bovine lens (Lineweaver-Burk); format: biochemical; settings: procedure of Lineweaver and Burk, read-out: Amount which inhibits the maximum velocity of the aldose reductase activity by 50% (IC50)
T1 construct: Aldose reductase was isolated from bovine lens; from tissue; host or cells: bovine lens
Protocol: The ability of 4,5-dihydro-4H-pyrrolo[3,2,1-ij]quinoline-1,2-dione to inhibit aldose reductase activity was determined according to the procedure of Lineweaver, H., and Burk D., The Determination of Enzyme Dissociation Constants, J. Am. Chem. Soc. 658-666 (1934).
Aldose reductase was isolated from bovine lens and the activity of the enzyme determined according to Gabbay, R. H. and Kinoshita, J. H., Methods in Enzymology, Vol. XLI (B) 37:159.

[2] = test system: aldose reductase; experiment: Lens polyol (dulcitol) accumulation in galactose-fed rats; format: in vivo, rat (male albino, Spraque-Dawley); settings: for Mean Polyol Accumulation, Micromoles Dulcitol/g of Tissue: rat lens 24 h after third dose
Protocol: As discussed hereinabove, sugar cataract formation is a frequent complication of the diabetic patient and their occurrence is apparent even in patients where diabetes appears controlled. […] The accumulation of polyols in the lens tissue results in osmotic and histological changes which are characteristic of sugar cataracts. […] Control rats received a 10% galactose solution at a dose level of 10 ml/kg. daily for three days. The total dose was 1 g/kg daily. Six animals per control group were used. Groups receiving galactose plus test drug contained three rats. The routine starting dose of a test drug was 100 mg/kg. orally for three days with galactose given simultaneously. The test drug was administered at a volume of 5 ml/kg. The test drug solution and the galactose solution were administered together. Twenty-four hours after the third dose the lens of the eyeballs were carefully removed from the sacrificed rats and the polyol content of the lens determined according to West and Rapport, Proc. Soc. Exp. Biol. Med. 70, 141-142 (1949).

SMILES | IC50 [1] [µM] | Mean Polyol Accumulation, Micromoles Dulcitol/g of Tissue ([2]; Experiment No. 1, 100 mg/kg PO daily for three days with galactose 1 g/kg daily, galactose controls 3.7) | Mean Polyol Accumulation, %± Control ([2]; Experiment No. 1, 100 mg/kg PO daily for three days with galactose, rat lens, vs galactose controls) [%] | Mean Polyol Accumulation, %± Control ([2]; po, 100 mg/kg, 72 h) [%] | Mean Polyol Accumulation, Micromoles Dulcitol/g of Tissue ([2]; Experiment No. 1, 200 mg/kg PO daily for three days with galactose 1 g/kg daily, galactose controls 3.7) | Mean Polyol Accumulation, %± Control ([2]; Experiment No. 1, 200 mg/kg PO daily for three days with galactose, rat lens, vs galactose controls) [%] | Mean Polyol Accumulation, Micromoles Dulcitol/g of Tissue ([2]; Experiment No. 2, 100 mg/kg PO daily for three days with galactose 1 g/kg daily, galactose controls 4.3) | Mean Polyol Accumulation, %± Control ([2]; Experiment No. 2, 100 mg/kg PO daily for three days with galactose, rat lens, vs galactose controls)
O=C1C(=O)N2CCCc3cccc1c32 [AHR-5191, 5,6-dihydro-4H-pyrrolo[3,2,1-ij]quinoline-1,2-dione] | 80 | 2.1 Micromoles Dulcitol/g of Tissu | -43.2 | -37.0 |  |  |  | 
O=C(O)CN1C(=O)c2cccc3cccc(c23)C1=O [Ay-22,284, 1,3-dioxo-1H-benz[de]isoquinoline-2(3H) acetic acid] | 90 |  |  |  | 2.7 Micromoles Dulcitol/g of Tissu | -27 | 5.9 Micromoles Dulcitol/g of Tissu | +37.2%
